Test [1] deals with Serine/threonine-protein kinase 32C (Homo sapiens) (UniProt Q86UX6). Put plainly: Inhibition of YANK3 Lys2 labeling site in human Huh-7 cells at 1 uM by KiNativ Profiling analysis relative to control. Format: cell-based.
The target in test [2] is Calcium/calmodulin-dependent protein kinase type II subunit gamma (Homo sapiens) (UniProt Q13555). Put plainly: Inhibition of CaMK2g Lys2 labeling site in human Huh-7 cells at 1 uM by KiNativ Profiling analysis relative to control. The format is cell-based.
In test [3] the target is Cyclin-dependent kinase 5 (Homo sapiens) (UniProt Q00535). Kind of test: Inhibition of CDK5 Lys2 labeling site harbouring NVLHRDLKPQNLLINR in human Huh-7 cell lysate at 1 uM by KiNativ Profiling analysis relative to control. The format is subcellular.
The target of test [4] is Cyclin-dependent kinase 6 (Homo sapiens) (UniProt Q00534). Put plainly: Inhibition of CDK6 Lys2 labeling site in human Huh-7 cells at 1 uM by KiNativ Profiling analysis relative to control. The format is cell-based.
Test [5] addresses RAC-alpha serine/threonine-protein kinase (Homo sapiens) (UniProt P31749). Kind of test: Inhibition of AKT1 (unknown origin) at 1 uM by Ambit Kinomescan binding assay relative to control.
Test [6] concerns the target Serine/threonine-protein kinase 17B (Homo sapiens) (UniProt O94768). Kind of test: Inhibition of DRAK2 (unknown origin) at 1 uM by Ambit Kinomescan binding assay relative to control; values are per cent of control.
Test [7] has as its target 5'-AMP-activated protein kinase catalytic subunit alpha-1 (Homo sapiens) (UniProt Q13131). Kind of test: Inhibition of AMPKa1 Lys2 labeling site in human A-375 cells at 5 uM by KiNativ Profiling analysis relative to control. The format is cell-based.
In test [8] the target is Protein kinase C iota type (Homo sapiens) (UniProt P41743). Put plainly: Inhibition of PRKCI (unknown origin) at 1 uM by Ambit Kinomescan binding assay relative to control; values are per cent of control.
For test [9], the target named is Ribosomal protein S6 kinase alpha-5 (Homo sapiens) (UniProt O75582). Put plainly: Inhibition of N-terminal RPS6KA5 kinase domain 1 (unknown origin) at 1 uM by Ambit Kinomescan binding assay relative to control.
The subject of test [10] is Receptor-type tyrosine-protein kinase FLT3 (Homo sapiens), P36888 [D835Y]. Put plainly: Inhibition of FLT3 D835Y mutant (unknown origin) at 1 uM by Ambit Kinomescan binding assay relative to control; values are per cent of control.
Test [11] deals with Dual specificity mitogen-activated protein kinase kinase 1 (Homo sapiens) (UniProt Q02750). Put plainly: Inhibition of MEK1 (unknown origin) at 10 uM by Ambit Kinomescan binding assay.
For test [12], the target named is Mitogen-activated protein kinase kinase kinase 20 (Homo sapiens, UniProt Q9NYL2). Put plainly: Inhibition of ZAK K1 labeling site in human Huh-7 cells at 10 uM by KiNativ Profiling analysis relative to control. Format: cell-based.
The target of test [13] is Calcium/calmodulin-dependent protein kinase kinase 2 (Homo sapiens) (UniProt Q96RR4). Put plainly: Inhibition of CaMKK2 Lys1 labeling site in human A-375 cells at 0.5 uM by KiNativ Profiling analysis relative to control. Format: cell-based.
For test [14], the target named is Macrophage-stimulating protein receptor (Homo sapiens) (UniProt Q04912). Put plainly: Inhibition of MST1R (unknown origin) at 10 uM by Ambit Kinomescan binding assay.
Test [15] has as its target Cyclin-dependent kinase 17 (Homo sapiens) (UniProt Q00537). Kind of test: Inhibition of PCTAIRE2 Lys1 labeling site harbouring SKLTENLVALKEIR in human A-375 cells at 0.05 uM by KiNativ Profiling analysis relative to control. Format: cell-based.
Test [16] addresses Ribosomal protein S6 kinase alpha-3 (Homo sapiens) (UniProt P51812). Put plainly: Inhibition of N-terminal RPS6KA3 kinase domain 1 (unknown origin) at 10 uM by Ambit Kinomescan binding assay.
The nature of test [17]: Inhibition of KHS1/2 K2 labeling site in human Huh-7 cells at 10 uM by KiNativ Profiling analysis relative to control. The following applies: condition cancer.
For test [18], the target named is T1, Mitogen-activated protein kinase kinase kinase 6 (Homo sapiens) (UniProt O95382).
T1 sequence (whole entry): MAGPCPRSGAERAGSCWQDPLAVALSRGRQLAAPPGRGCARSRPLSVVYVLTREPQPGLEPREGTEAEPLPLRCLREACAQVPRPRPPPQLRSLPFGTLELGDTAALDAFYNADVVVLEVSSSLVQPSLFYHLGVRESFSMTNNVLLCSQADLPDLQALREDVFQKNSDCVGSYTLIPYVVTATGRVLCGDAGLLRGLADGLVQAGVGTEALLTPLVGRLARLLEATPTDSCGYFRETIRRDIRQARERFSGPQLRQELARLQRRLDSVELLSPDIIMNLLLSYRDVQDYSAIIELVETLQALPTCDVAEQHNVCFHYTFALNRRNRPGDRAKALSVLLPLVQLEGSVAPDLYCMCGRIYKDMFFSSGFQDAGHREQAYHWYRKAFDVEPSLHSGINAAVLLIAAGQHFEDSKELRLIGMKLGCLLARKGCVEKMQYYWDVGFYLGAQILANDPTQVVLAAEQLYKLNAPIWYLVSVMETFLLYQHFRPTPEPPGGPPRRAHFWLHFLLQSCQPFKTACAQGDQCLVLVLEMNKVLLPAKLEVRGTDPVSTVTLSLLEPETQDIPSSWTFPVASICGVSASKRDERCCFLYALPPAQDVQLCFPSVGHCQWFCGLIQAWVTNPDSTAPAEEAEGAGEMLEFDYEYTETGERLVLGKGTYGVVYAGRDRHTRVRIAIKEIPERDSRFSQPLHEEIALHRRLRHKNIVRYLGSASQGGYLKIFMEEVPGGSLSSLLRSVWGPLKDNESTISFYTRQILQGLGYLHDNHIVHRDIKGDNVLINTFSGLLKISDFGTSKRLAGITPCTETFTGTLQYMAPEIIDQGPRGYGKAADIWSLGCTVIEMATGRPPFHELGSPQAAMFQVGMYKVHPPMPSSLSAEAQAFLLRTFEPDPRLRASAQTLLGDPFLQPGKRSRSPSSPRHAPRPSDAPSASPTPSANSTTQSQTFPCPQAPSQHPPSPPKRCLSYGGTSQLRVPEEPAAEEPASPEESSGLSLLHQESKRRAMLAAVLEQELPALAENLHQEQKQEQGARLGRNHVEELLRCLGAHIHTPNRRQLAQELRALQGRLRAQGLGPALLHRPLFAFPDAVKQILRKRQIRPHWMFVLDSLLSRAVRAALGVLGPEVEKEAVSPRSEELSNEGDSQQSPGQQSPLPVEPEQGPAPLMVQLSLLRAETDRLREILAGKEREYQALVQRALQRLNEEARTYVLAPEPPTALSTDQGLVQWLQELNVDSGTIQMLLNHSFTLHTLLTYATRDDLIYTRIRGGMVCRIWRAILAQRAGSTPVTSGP
Put plainly: Inhibition of MAP3K6 Lys1 labeling site harbouring IAIKEIPERDSR in human A-375 cells at 5 uM by KiNativ Profiling analysis relative to control. The format is cell-based.

This note sets out measurements from ChEMBL document CHEMBL5696442, “Discovery of type II inhibitors of TGFβ-activated kinase 1 (TAK1) and mitogen-activated protein kinase kinase kinase kinase 2 (MAP4K2)” (J Med Chem, 2015).

Activity calls are given as the source filed them. The rule behind the calls is not given here.

Chain of Dual specificity mitogen-activated protein kinase kinase 1 (Homo sapiens) (Q02750 whole entry): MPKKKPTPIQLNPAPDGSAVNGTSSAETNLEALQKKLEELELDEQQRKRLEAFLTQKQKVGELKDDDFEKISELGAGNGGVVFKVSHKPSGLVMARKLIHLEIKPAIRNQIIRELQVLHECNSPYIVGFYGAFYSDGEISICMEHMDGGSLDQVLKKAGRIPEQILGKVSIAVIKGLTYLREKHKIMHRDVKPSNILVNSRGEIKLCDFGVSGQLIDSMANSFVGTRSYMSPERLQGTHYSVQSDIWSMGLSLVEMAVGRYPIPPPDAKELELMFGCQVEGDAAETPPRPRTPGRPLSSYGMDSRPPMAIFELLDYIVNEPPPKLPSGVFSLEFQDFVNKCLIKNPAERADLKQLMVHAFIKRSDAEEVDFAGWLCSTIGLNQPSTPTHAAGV
Chain of Ribosomal protein S6 kinase alpha-5 (Homo sapiens) (O75582 whole entry, looked up, the tested form may be a part): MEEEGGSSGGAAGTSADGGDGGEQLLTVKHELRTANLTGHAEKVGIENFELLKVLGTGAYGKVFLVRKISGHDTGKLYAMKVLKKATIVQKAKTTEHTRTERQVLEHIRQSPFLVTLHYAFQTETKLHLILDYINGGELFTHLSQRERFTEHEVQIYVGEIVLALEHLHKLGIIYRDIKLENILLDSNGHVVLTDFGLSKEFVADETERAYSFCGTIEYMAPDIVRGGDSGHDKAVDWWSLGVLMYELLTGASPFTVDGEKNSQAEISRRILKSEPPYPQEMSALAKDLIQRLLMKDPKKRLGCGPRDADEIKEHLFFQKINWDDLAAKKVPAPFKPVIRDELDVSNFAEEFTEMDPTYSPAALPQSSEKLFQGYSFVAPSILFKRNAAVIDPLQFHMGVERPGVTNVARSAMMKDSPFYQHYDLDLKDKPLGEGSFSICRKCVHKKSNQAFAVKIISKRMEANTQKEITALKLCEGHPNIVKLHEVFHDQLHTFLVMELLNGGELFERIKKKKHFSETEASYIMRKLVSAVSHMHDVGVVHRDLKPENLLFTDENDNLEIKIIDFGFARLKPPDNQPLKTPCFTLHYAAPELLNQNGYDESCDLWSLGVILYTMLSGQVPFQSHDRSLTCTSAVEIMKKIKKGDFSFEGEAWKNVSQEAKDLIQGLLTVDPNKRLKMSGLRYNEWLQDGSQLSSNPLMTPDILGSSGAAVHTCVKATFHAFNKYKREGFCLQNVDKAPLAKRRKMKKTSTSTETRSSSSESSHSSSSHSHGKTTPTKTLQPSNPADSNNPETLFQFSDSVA
Chain of Serine/threonine-protein kinase 17B (Homo sapiens) (O94768 whole entry): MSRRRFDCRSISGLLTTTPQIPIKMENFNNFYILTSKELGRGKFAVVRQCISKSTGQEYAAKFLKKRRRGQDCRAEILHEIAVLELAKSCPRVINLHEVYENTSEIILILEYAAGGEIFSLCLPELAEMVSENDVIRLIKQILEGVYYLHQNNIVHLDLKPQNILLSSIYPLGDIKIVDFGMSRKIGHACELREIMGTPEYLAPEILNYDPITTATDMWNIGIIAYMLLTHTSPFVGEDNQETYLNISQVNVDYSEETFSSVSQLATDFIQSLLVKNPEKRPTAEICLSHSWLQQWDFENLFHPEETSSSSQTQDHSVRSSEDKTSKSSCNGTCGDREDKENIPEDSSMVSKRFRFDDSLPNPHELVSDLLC
Chain of 5'-AMP-activated protein kinase catalytic subunit alpha-1 (Homo sapiens) (Q13131 whole entry, looked up): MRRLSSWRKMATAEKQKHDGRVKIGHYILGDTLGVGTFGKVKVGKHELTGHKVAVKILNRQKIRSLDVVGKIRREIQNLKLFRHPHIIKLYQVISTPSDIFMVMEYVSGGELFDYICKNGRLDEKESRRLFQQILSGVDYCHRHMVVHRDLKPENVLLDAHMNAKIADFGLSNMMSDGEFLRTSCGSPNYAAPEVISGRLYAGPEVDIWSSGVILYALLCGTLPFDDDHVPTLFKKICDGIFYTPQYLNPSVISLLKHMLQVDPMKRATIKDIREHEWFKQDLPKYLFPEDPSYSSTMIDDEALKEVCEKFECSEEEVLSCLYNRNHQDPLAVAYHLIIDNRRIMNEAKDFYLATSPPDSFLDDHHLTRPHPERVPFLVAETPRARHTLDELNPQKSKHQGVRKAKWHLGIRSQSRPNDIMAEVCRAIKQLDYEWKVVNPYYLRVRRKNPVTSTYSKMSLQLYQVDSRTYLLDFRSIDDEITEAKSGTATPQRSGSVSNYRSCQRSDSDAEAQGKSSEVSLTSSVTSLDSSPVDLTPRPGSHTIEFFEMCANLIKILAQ
Chain of Mitogen-activated protein kinase kinase kinase 20 (Q9NYL2 2-800 limits assumed): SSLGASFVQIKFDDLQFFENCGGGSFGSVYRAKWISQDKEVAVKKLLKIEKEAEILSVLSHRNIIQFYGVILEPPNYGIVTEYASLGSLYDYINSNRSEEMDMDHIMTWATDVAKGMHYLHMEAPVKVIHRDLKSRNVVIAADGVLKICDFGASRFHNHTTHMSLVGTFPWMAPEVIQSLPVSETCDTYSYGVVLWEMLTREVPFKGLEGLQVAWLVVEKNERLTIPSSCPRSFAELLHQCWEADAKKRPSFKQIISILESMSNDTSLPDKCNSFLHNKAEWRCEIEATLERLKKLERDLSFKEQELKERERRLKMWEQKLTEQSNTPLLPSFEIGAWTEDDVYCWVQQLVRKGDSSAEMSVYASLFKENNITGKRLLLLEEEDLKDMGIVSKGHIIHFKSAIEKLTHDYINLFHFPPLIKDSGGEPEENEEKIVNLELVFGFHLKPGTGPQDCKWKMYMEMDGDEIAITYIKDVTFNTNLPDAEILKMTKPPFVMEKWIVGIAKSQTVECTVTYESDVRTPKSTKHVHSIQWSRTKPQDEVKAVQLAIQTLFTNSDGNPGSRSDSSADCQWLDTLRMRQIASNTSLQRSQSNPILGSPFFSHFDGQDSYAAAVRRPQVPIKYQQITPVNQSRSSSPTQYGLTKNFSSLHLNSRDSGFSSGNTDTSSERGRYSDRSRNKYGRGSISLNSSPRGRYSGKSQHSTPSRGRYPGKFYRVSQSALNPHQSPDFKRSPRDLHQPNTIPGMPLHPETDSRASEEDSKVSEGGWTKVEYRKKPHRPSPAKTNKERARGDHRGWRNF
Chain of Macrophage-stimulating protein receptor (Homo sapiens) (Q04912 25-304 limits assumed): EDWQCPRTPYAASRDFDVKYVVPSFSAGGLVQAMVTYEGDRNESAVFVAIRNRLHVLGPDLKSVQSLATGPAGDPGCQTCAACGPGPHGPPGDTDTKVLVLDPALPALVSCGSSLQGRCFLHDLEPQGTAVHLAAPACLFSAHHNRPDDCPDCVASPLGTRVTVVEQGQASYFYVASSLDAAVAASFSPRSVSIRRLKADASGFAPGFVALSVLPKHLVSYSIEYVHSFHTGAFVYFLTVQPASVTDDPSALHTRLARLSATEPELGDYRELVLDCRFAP
Chain of Macrophage-stimulating protein receptor (Homo sapiens) (Q04912 310-1400 limits assumed): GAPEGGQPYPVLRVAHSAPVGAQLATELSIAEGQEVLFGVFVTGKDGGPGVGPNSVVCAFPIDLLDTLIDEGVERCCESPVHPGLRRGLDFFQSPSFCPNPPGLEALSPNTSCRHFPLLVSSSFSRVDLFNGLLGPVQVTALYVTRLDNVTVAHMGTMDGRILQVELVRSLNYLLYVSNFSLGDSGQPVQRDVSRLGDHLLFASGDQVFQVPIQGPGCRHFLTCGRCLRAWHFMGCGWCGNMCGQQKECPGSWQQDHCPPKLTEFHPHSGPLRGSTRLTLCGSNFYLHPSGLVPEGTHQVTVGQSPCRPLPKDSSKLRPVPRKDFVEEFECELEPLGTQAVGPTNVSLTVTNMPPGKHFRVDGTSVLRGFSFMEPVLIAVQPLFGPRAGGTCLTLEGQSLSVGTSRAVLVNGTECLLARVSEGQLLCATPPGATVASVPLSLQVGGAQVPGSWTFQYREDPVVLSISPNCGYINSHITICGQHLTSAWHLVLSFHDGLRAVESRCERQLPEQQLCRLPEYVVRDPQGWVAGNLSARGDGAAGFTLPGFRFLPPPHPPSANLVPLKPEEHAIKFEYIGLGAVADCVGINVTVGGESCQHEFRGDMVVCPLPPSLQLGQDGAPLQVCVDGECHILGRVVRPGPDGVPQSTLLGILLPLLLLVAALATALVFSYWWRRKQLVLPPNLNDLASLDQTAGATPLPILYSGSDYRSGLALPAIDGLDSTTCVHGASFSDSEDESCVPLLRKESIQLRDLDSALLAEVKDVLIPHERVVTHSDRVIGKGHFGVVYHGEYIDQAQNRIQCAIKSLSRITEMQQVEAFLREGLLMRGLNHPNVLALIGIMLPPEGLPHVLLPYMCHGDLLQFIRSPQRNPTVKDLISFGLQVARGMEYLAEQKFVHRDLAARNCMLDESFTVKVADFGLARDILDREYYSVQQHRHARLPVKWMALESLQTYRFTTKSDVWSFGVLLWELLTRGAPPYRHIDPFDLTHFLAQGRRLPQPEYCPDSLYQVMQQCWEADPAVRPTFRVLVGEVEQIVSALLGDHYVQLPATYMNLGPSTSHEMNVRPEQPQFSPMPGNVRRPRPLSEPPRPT
Chain of Serine/threonine-protein kinase 32C (Homo sapiens) (Q86UX6 whole entry): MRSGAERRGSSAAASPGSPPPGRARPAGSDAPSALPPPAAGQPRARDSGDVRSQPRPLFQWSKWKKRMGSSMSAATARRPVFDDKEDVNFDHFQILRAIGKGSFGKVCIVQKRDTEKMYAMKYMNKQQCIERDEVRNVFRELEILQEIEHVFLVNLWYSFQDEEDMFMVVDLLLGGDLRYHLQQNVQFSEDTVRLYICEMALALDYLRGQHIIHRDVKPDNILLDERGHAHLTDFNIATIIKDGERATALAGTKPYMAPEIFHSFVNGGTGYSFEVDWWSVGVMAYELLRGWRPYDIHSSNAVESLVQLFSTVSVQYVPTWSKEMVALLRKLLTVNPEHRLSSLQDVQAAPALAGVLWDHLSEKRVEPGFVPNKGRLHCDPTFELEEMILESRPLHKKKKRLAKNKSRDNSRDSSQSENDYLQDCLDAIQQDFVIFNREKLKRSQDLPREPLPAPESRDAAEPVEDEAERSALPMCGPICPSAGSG

`CNc1cc(Oc2cc(C(=O)Nc3cc(N4CCN(C)CC4)cc(C(F)(F)F)c3)ccc2C)ncn1`: the inhibition was found to be 12.2% in [1], 20.3% in test [2], 22.5% in [3] and 24.4% in [4].
Regarding `CCN1CCN(Cc2ccc(NC(=O)c3ccc(C)c(/C=C/c4cnc5[nH]ccc5c4OC)c3)cc2C(F)(F)F)CC1`, the figures for the inhibition in [5], in test [7] and in test [9] were 100%, 18.5% and 62%, respectively. Further, the residual activity in test [6] came out at 16%; in [8], 100%; in test [10] it was 6.8%.
In the case of `CCN1CCN(Cc2ccc(NC(=O)c3ccc(C)c(Oc4ccnc5[nH]ccc45)c3)cc2C(F)(F)F)CC1`, the inhibition result in [11], in test [14] and in test [16] was “inactive” throughout. Besides, the inhibition in test [12] is 83.4%; in test [13] it was 6.3%; in test [15] it was 2.5%; in [18], -3.2%. Moreover, the inhibition at 10 µM in [17] is 6.6%.

The inhibition is the drop in the measured response relative to a control, in per cent. As usually defined, the residual activity is the share of the control activity or signal that is left under treatment.
